Experimental data: PMC8766756, “Insights on Cancer Cell Inhibition, Subcellular Activities, and Kinase Profile of Phenylacetamides Pending 1H-Imidazol-5-One Variants” (Frontiers in Pharmacology, 2022)
Several values for one entry are separate records, joined by “and”; a condition that tells them apart may be missing. Equal entries are not always repeated.

What was measured:
Test in all cases: PamChip tyrosine kinase microarray
Type in all cases: biochemical
Conditions in all cases: 0.1 µM, HL60 lysate
[1] = target: T1, TRKA (P04629) (Homo sapiens, UniProt P04629)
T1 construct: purchased PamGene (PamChip PTK array, Upstream Kinase Analysis)
T1 sequence (P04629 33-796): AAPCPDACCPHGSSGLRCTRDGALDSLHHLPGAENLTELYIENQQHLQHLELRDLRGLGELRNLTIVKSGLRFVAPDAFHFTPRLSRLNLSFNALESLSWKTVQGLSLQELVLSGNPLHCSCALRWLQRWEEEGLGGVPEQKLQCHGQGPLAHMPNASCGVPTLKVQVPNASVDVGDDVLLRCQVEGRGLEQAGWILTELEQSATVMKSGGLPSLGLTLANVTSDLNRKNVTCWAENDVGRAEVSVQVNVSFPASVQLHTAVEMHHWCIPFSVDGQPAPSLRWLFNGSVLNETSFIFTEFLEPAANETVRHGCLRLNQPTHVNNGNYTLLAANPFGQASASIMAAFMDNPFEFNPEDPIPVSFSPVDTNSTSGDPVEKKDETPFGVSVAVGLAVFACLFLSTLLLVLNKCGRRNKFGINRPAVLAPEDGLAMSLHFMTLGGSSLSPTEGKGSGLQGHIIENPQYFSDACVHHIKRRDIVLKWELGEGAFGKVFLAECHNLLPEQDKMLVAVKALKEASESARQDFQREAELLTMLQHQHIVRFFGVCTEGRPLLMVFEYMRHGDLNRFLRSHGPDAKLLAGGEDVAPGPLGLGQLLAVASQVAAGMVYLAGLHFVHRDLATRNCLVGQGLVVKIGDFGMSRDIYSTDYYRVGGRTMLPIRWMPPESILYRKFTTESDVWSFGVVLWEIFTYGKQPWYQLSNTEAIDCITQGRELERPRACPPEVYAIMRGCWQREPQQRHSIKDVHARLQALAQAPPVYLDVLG
How it was run: (§1)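 HL60 (AML) cell lysate was spiked with compound at 0.001, 0.01, 0.1, 1, 10 and 50 µM, or 2% v/v DMSO as control, then profiled in technical replicates on a tyrosine kinase peptide array of 196 phosphosites. Kinase activity was inferred from peptide-set changes using an upstream kinase tool.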

[2] = target: T2, Mer (Q12866) (Homo sapiens, UniProt Q12866)
T2 construct: purchased PamGene (PamChip PTK array, Upstream Kinase Analysis)
T2 sequence (Q12866 21-999): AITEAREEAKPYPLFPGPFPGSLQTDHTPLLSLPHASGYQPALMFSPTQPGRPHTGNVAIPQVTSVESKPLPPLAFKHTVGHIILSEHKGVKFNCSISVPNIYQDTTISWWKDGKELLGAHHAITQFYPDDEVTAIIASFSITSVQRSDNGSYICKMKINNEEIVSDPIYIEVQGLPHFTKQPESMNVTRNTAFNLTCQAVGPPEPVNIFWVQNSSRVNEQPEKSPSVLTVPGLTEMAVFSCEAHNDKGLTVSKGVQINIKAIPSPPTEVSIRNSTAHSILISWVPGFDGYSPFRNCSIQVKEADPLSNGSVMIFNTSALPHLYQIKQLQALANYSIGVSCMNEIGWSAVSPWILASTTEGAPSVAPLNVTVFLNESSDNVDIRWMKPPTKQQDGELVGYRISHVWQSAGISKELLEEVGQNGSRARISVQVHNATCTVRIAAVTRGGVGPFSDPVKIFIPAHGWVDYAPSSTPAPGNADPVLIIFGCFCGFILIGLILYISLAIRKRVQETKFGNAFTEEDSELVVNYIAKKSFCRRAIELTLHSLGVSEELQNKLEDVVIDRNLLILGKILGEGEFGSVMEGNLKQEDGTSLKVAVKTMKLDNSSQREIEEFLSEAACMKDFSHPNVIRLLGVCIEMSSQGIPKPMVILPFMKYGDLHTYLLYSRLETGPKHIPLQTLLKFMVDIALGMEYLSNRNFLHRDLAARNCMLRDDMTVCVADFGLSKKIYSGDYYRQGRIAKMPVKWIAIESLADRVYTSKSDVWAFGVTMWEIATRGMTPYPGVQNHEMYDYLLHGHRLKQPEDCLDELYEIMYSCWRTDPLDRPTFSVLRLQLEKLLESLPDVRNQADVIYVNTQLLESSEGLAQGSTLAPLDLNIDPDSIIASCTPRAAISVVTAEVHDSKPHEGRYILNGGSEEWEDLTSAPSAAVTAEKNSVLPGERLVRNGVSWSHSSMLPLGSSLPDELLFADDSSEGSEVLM
How it was run: as §1

[3] = target: T3, SRM (Q9H3Y6) (Homo sapiens, UniProt Q9H3Y6)
T3 construct: purchased PamGene (PamChip PTK array, Upstream Kinase Analysis)
T3 sequence (Q9H3Y6 whole entry): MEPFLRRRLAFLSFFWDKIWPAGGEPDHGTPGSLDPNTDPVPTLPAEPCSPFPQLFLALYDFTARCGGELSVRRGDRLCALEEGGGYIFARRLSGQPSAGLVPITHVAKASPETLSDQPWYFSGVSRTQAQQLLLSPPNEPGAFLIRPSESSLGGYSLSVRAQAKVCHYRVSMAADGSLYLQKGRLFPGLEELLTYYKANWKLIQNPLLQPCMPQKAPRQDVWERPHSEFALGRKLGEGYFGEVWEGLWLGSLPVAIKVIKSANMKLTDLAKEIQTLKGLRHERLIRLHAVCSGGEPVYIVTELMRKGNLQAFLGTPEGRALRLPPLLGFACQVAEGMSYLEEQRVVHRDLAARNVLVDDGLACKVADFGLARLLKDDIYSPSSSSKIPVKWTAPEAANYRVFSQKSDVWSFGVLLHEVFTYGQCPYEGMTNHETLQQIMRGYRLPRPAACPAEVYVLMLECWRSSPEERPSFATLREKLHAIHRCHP
How it was run: as §1

[4] = target: T4, EphA7 (Q15375) (Homo sapiens, UniProt Q15375)
T4 construct: purchased PamGene (PamChip PTK array, Upstream Kinase Analysis)
T4 sequence (Q15375 28-998): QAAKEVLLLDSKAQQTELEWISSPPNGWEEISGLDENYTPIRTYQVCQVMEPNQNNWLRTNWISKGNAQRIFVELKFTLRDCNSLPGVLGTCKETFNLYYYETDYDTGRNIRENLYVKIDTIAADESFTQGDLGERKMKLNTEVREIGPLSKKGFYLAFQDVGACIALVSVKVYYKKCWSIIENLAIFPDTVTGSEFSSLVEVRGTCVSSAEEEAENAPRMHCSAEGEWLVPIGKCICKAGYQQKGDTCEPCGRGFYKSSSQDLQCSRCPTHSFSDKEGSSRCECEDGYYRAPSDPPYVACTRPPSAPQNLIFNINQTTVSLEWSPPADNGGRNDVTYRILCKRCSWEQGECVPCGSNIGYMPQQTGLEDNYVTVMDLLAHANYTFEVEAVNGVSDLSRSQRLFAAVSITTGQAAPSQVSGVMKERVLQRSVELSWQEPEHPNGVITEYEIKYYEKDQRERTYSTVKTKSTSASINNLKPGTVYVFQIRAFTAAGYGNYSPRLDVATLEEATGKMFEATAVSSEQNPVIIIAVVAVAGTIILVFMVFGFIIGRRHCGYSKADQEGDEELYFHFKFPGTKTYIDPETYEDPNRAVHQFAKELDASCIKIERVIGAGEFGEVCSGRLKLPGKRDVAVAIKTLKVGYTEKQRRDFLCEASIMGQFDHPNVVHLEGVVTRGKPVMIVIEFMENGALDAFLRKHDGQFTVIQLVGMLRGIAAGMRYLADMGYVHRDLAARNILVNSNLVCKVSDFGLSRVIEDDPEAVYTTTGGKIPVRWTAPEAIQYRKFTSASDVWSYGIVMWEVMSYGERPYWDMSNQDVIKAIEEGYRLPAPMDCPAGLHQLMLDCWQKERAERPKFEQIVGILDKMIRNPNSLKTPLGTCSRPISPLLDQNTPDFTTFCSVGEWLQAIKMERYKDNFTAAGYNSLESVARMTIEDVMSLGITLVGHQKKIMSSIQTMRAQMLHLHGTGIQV
How it was run: as §1

[5] = target: T5, FGFR4 (P22455) (Homo sapiens, UniProt P22455)
T5 construct: purchased PamGene (PamChip PTK array, Upstream Kinase Analysis)
T5 sequence (P22455 22-802): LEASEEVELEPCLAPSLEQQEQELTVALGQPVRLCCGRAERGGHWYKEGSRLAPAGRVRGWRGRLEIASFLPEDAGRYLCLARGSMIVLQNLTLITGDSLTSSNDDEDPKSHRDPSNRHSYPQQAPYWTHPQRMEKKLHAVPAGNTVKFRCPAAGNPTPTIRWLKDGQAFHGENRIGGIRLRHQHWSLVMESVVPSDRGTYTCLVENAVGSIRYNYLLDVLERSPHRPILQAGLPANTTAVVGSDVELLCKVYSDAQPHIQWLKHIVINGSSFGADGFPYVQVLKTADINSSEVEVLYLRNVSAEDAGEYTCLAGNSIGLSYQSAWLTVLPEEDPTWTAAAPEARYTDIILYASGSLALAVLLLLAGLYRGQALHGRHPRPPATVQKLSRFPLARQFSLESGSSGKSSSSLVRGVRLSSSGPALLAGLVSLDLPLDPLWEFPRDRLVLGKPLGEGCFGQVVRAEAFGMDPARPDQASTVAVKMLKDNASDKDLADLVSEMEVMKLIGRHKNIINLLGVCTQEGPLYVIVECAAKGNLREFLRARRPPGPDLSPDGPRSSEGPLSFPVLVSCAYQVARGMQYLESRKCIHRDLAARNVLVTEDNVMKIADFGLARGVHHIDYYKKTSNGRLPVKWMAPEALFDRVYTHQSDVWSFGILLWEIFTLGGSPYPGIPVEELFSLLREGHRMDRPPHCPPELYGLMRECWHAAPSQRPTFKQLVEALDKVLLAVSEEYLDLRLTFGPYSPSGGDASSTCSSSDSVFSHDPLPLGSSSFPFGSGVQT
How it was run: as §1

## COc1ccc(/C=C2\N=C(C)N(c3ccc(CC(=O)NCc4ccccc4)cc3)C2=O)cc1 [Compound 4c, (Z)-N-Benzyl-2-(4-(4-(4-methoxybenzylidene)-2-methyl-5-oxo-4,5-dihydro-1H-imidazol-1-yl)phenyl)acetamide]
[1]
  Mean Final score (Kinase score): 2.339
  Mean Kinase Statistic: -1.138
  Mean Significance Score: 2.048
  Mean Specificity Score: 0.2694
[2]
  Mean Final score (Kinase score): 2.544
  Mean Kinase Statistic: -1.224
  Mean Significance Score: 2.048
  Mean Specificity Score: 0.533
[3]
  Mean Significance Score: 2.048
  Mean Specificity Score: 1.961
[3]; listed as KIM-161
  Mean Final score (Kinase score): 4.1 and 4.097
[4]
  Mean Final score (Kinase score): 0.8806
  Mean Kinase Statistic: -0.6736
  Mean Significance Score: 0.8204
  Mean Specificity Score: 0.0595
[5]
  Mean Significance Score: 2.023
  Mean Specificity Score: 0.5516
[5]; listed as KIM-161
  Mean Final score (Kinase score): 2.73 and 2.7333
